Consider 14 molecules from patent publication US4367339A, “Substituted N-nitroaniline compounds and inorganic and organic salts thereof useful for enhancing auxiliary branching, canopy flowering and crop yield of plant and as lodging inhibitors therefor” (priority 1980, dated 1983).

Counter-ions that a name gives are not always drawn. Some results are limits rather than exact numbers.

Series [1] deals with soybean (Glycine max) Adelphia. As to the kind of experiment: Dwarfing and stem stiffening of soybeans (plant height, greenhouse, foliar spray). Format: in vivo. To be noted: three weeks after spraying. As for the experimental part:
In the following tests, test compounds are dissolved or dispersed in acetone-water (1:1) mixtures at the final concentration corresponding to the kg/ha rates indicated in the table below. The solution also contains 0.25% v/v colloidal BIOFILM® (a product of Colloidal Products Corp.) which is a mixture of alkyl aryl polyethoxyethanol, free and combined fatty acids, glycol ethers, dialkylbenzene carboxylate and 2-propanol.
The plant species used in these tests are barley (Hordeum vulgare), (Mexico) and soybean (Glycine max)Adelphia.
The solution or dispersion of the compound under test is sprayed at a rate of 747 l/ha with a moving nozzle along an overhead stationary track. The spray nozzle moves at a constant speed over the plants.
The plants are grown in plastic pots, and are well established at the time of treatment. The seedlings of barley are 10 to 20 cm in height, while the seedlings of soybeans are at the second to third trifoliate stage. Plants are watered prior to treatment and then sprayed to provide the kg/ha rate of test compound desired. After spraying the plants are placed on greenhouse benches and watered and fertilized in accordance with normal greenhouse procedures.
Three weeks after spraying the plants are measured and harvested. Harvesting is done at the boot stage. All treatments are replicated six times and comparisons are made against untreated controls. Data obtained are reported in Table VI below as percent reduction in plant height over untreated controls.

The test system of series [2] is soybeans (Glycine max) Adelphia variety. Briefly: Increasing axillary branching and improving the canopy of broad leaf plants (soybeans). Format: in vivo, soybean (Glycine max). To be noted: three weeks after treatment. The source says:
In these tests seedling soybean plants approximately three weeks old, and grown in plastic pots to the 2nd to 3rd trifoliate stage, are sprayed with solutions or dispersions of test compound prepared as described in Example 7 above. The same spraying apparatus, described in Example 7 above, is used and after spraying the plants are placed on greenhouse benches and watered and fertilized. Three weeks after treatment the plants are examined to determine what effect the application of test compound has had on the axillary branching and canopy development of the treated plants.
Increased axillary branching and improved canopy are biological responses which are highly advantageous in the growing of ornamental plants. These responses also have advantage in many crops since increased branching may result in the greater production of fruit, while improved canopy tends to shade and suppress the growth of undesirable weeds that compete with the crops for sunlight, water and plant nutrients. Data obtained are reported in table VII below where axillary branching and canopy are reported as percent increase over untreated controls.

Series [3] has as its system barley (Hordeum vulgare, var. Georgie). As to the kind of experiment: Antilodging effects on barley. Format: in vivo. More on the design: key to Tiller formation / Stem stiffness: 5 = no increase over controls, 3 = moderate significant increase. Particulars: for Stem stiffness / Tiller formation: control 5; for Weight Dry: control 5.2; for Weight Fresh: control 49.1; for Height: control 53.1; for Phytotoxicity: three weeks after spraying. As for the experimental part: In this experiment the procedure of Example 7 is repeated excepting that the crop used was barley (Hordeum vulgare, var. Georgie; European lodging prone variety). The plants are treated at the 3-4 leaf stage. Plants are watered prior to treatment and then sprayed to provide the kg/ha rate of test compound desired. After spraying the plants are placed on greenhouse benches and watered and fertilized in accordance with normal greenhouse procedures.
Three weeks after spraying the plants are measured and harvested. All treatments are replicated six times and companions are made against untreated controls.
The following rating system is used:
5=No increase over controls
3=Moderate, significant increase over controls.

For “1,2-Dimethyl-3,5-diphenylpyrazolium salt with 2,6-dibromo-α,α,α-trifluoro-N--aci-nitro-o-toluidine”, the “% Reduction in Plant Height over untreated controls” value (shortened to “% Reduction in Plant Height”) in series [1] (rate 0.125 kg/ha) is recorded as more than 10%; in series [1] (rate 0.25 kg/ha) it was more than 15%; in series [1] (rate 0.5 kg/ha) it was more than 20%.
Take “3-(p-Fluorophenyl)-1,2-dimethyl-3,5-diphenylpyrazolium salt with 2,4,6-tribromo-N--aci-nitroaniline”: in series [2] (rate 0.125 kg/ha), the “% Increase in Plant Canopy over untreated controls” value (shortened to “% Increase in Plant Canopy”) was “normal” and the “% Increase in axillary branching over untreated controls” value (shortened to “% Increase in axillary branching”) was “normal”. In series [2] (rate 0.5 kg/ha), the “% Increase in axillary branching” value is recorded as “normal”.
Consider `O=[N+]([O-])Nc1c(Br)cc(Br)cc1Br` [2,4,6-Tribromo-N--nitroaniline, triethylamine (1:1)salt], for which, in series [2] (rate 0.125 kg/ha), the “% Increase in axillary branching” value is reported as “normal”. Moreover, the “% Increase in Plant Canopy” value in series [2] (rate 0.25 kg/ha) and in series [2] (rate 0.5 kg/ha) was “slight reduction” each time.
In the case of `O=[N+]([O-])Nc1c(Br)cc(Br)cc1Br` [1-Hexadecylpyridinium salt with 2,4,6-tribromo-N--aci-nitroa], the “% Increase in Plant Canopy” value in series [2] (rate 0.125 kg/ha) is listed as “normal”. Further, the “% Increase in axillary branching” value in series [2] (rate 0.125 kg/ha), in series [2] (rate 0.25 kg/ha) and in series [2] (rate 0.5 kg/ha) was “normal” in each case.
For `O=[N+]([O-])Nc1c(Br)cc(Br)cc1Br` [2,4,6-Tribromo-N--nitroaniline, magnesium salt], the “% Increase in Plant Canopy” value in series [2] (rate 0.25 kg/ha, listed as 2,4,6-Tribromo-N--aci-nitroaniline, magnesium salt (2:1)) was “moderate reduction”; in series [2] (rate 0.5 kg/ha, listed as 2,4,6-Tribromo-N--aci-nitroaniline, magnesium salt (2:1)) it was “moderate reduction”.
Take `O=[N+]([O-])Nc1c(Br)cc(Br)cc1Br` [1-Hexadecylpyridinium salt with 2,4,6-tribromo-N-- aci-nitro] [1-Hexadecylpyridinium salt with 2,4,6-tribromo-N-- aci-nitroaniline]: the entries for the “% Reduction in Plant Height” value in series [1] (rate 0.125 kg/ha), in series [1] (rate 0.25 kg/ha) and in series [1] (rate 0.5 kg/ha) were more than 35%, more than 35% and more than 50%, respectively.
On to `Cn1c(-c2ccccc2)cc(-c2ccccc2)[n+]1C.O=[N+]([O-])[N-]c1c(Cl)cc(Cl)cc1Cl` [1,2-Dimethyl-3,5-diphenylpyrazolium salt with 2,4,6-trichloro-N--aci-nitroaniline], for which the “% Reduction in Plant Height” value in series [1] (rate 0.125 kg/ha) was more than 10%; in series [1] (rate 0.25 kg/ha) it was more than 15%; in series [1] (rate 0.5 kg/ha) it was more than 25%.
On the same counts, the results for `O=[N+]([O-])Nc1c(Br)cc(Br)cc1Br` [Dibenzylamine(1:1)with 2,4,6-tribromo-N--nitroaniline] are more than 25%, more than 35% and more than 50%.
Turning to `O=[N+]([O-])N(F)c1c(Br)cccc1Br` [2,6-Dibromo-N--fluoro-N--nitroaniline], in series [3] (rate 0.25 kg/ha), the Stem stiffness is 4, the Tiller formation is given as 4, the “Weight Dry” value amounted to 6.0 g and the “Weight Fresh” value amounted to 57.8 g. For the same molecule, in series [3] (rate 0.25 kg/ha), the Height turned out to be 52.0 cm and the Phytotoxicity is on record as 5 (No increase over controls). Besides, in series [3] (rate 0.5 kg/ha), the Stem stiffness is 5 (No increase over controls), the Tiller formation was 5 (No increase over controls), the “Weight Fresh” value stood at 52.6 g and the Height was determined as 51.0 cm. In series [3] (rate 0.5 kg/ha), the Phytotoxicity was 5 (No increase over controls). In series [3] (rate 1.0 kg/ha), the Stem stiffness is recorded as 5 (No increase over controls), the Tiller formation is given as 4, the “Weight Fresh” value is 49.2 g and the Height turned out to be 45.2 cm. For the same molecule, the Phytotoxicity in series [3] (rate 1.0 kg/ha) is 5 (No increase over controls).
On to `Cn1c(-c2ccccc2)cc(-c2ccccc2)[n+]1C.O=[N+]([O-])[N-]c1cccc(Cl)c1Cl` [1,2-Dimethyl-3,5-diphenylpyrazolium salt with 2,3-dichloro-N--aci-nitroaniline], for which, in series [3] (rate 0.25 kg/ha), the Stem stiffness was 5 (No increase over controls), the Tiller formation is 5 (No increase over controls), the “Weight Fresh” value is on record as 51.2 g and the Height is recorded as 56.3 cm. The Phytotoxicity in series [3] (rate 0.25 kg/ha) is reported as 5 (No increase over controls). Besides, in series [3] (rate 0.5 kg/ha), the Stem stiffness was 5 (No increase over controls), the Tiller formation is on record as 5 (No increase over controls), the “Weight Fresh” value is recorded as 52.6 g and the Height was 54.7 cm. For the same molecule, in series [3] (rate 0.5 kg/ha), the Phytotoxicity is on record as 5 (No increase over controls). For the same molecule, in series [3] (rate 1.0 kg/ha), the Stem stiffness is given as 5 (No increase over controls), the Tiller formation is listed as 5 (No increase over controls), the “Weight Dry” value came to 6.0 g and the “Weight Fresh” value turned out to be 57.3 g. Further, in series [3] (rate 1.0 kg/ha), the Height was determined as 55.5 cm and the Phytotoxicity is given as 5 (No increase over controls).
As for `Cc1cc(C)c(N[N+](=O)[O-])c(I)c1` [2-Iodo-4,6-dimethyl-N--nitroaniline], in series [3] (rate 0.25 kg/ha), the Stem stiffness was 5 (No increase over controls), the Tiller formation was 5 (No increase over controls), the “Weight Fresh” value is recorded as 54.1 g and the Height amounted to 52.7 cm. In series [3] (rate 0.25 kg/ha), the Phytotoxicity was 5 (No increase over controls). For the same molecule, in series [3] (rate 0.5 kg/ha), the Stem stiffness is recorded as 5 (No increase over controls), the Tiller formation was 5 (No increase over controls), the “Weight Fresh” value was determined as 52.7 g and the Height is recorded as 52.5 cm. In series [3] (rate 0.5 kg/ha), the Phytotoxicity is reported as 5 (No increase over controls). For the same molecule, in series [3] (rate 1.0 kg/ha), the Stem stiffness is listed as 5 (No increase over controls), the Tiller formation is given as 5 (No increase over controls), the “Weight Dry” value turned out to be 6.2 g and the “Weight Fresh” value is 58.0 g. In series [3] (rate 1.0 kg/ha), the Height was 53.5 cm and the Phytotoxicity is recorded as 5 (No increase over controls).
Consider “Tributyl(2,4-dichlorobenzyl)phosphonium salt with aniline”, for which the “% Reduction in Plant Height” value in series [1] (rate 0.125 kg/ha) is more than 8%; in series [1] (rate 0.25 kg/ha) it was more than 25%; in series [1] (rate 0.5 kg/ha), more than 50%.
As for `O=[N+]([O-])Nc1c(Br)cccc1Br` [Sodium salt of 2,6-dibromo-N--nitroaniline], in series [3] (rate 0.25 kg/ha), the Stem stiffness stood at 4, the Tiller formation came to 4, the “Weight Fresh” value came out at 55.6 g and the Height came to 50.2 cm. In addition, in series [3] (rate 0.25 kg/ha), the Phytotoxicity was 5 (No increase over controls). For the same molecule, in series [3] (rate 0.5 kg/ha), the Stem stiffness was determined as 4; the Tiller formation is 3 (Moderate, significant increase over controls.); the “Weight Dry” value was 6.4 g; the “Weight Fresh” value was found to be 57.6 g. Further, in series [3] (rate 0.5 kg/ha), the Height was determined as 47.2 cm and the Phytotoxicity is 5 (No increase over controls). Moreover, in series [3] (rate 1.0 kg/ha), the Stem stiffness is reported as 3 (Moderate, significant increase over controls.); the Tiller formation is given as 3 (Moderate, significant increase over controls.); the “Weight Fresh” value was found to be 55.5 g; the Height came to 47.0 cm. Also, the Phytotoxicity in series [3] (rate 1.0 kg/ha) is given as 5 (No increase over controls).
Consider `O=[N+]([O-])Nc1c(Br)cc(Br)cc1Br` [Dodecylamine with 2,4,6-tribromo-N--nitroaniline], for which the “% Reduction in Plant Height” value in series [1] (rate 0.125 kg/ha) was more than 15%; in series [1] (rate 0.25 kg/ha) it was more than 25%; in series [1] (rate 0.5 kg/ha) it was more than 35%.
